Results: US9969709B2, “Guanidinobenzoic acid ester compound” (Takeda Pharmaceutical Company Limited, priority 2013, dated 2018)

Key:
ICR mice = test: Test of increase in fecal protein concentration using mice; type: in vivo, mouse; conditions: Mus musculus, po, 9 h, 5 mg/kg oral, male ICR mice, feces collected 3 to 9 hours after feeding started, control group = 1; read-out: Fecal protein, Folds (vs. control)
Method: 2. Test of Increase in Fecal Protein Concentration Using Mice
For the experiment, 6-week old male ICR mice were used. The experiment was carried out in five mice per group. After fasting the mice for 15 hours, the control group was forcibly orally administered with a 0.5% methyl cellulose (MC) solution, and the test drug group was forcibly orally administered (5 mg/kg) with a solution or suspension obtained by dissolving or suspending the compound in the 0.5% MC solution. The fasting was stopped immediately thereafter, free feeding (CE-2) was started, and then the feces were collected from after 3 hours to after 9 hours, and weighed. All of the obtained feces were suspended in 6 mL of distilled water, and centrifuged at 1,940×g for 10 minutes. The protein concentration in the obtained supernatant was measured by a Bradford method, and the amount of the protein in 1 g of feces was calculated by dividing the protein concentration in the feces by the total weight of feces. Further, the efficacy was investigated from the ratio to the control group. For the compounds that were evaluated multiple times, the average values were calculated.
The results of the activities with an increase in Fecal Protein, assuming a value for the control group as 1, are shown in Table 2.

[1] = biological target: T1, human recombinant trypsin (rh-trypsin) (Homo sapiens, UniProt P07477); test: Trypsin inhibitory activity, human recombinant trypsin, BZiPAR fluorescent substrate; type: biochemical; conditions: 30 min at room temperature, read-out: r-h Trypsin inhibitory activity (IC50)
T1 construct: purchased Wako Pure Chemical Industries, Ltd. 206-17171
Method: (§1) 1. Confirmation of Trypsin Inhibitory Activity in Humans and Mice In the experiment, human recombinant trypsin (rh-trypsin; manufactured by Wako Pure Chemical Industries, Ltd.), cat. #206-17171) and mouse trypsin (m-trypsin; purified from the mouse small intestine contents by the present inventors) were used. The method for purifying m-trypsin from the contents of the mouse small intestine is shown below. The compound was dissolved in dimethyl sulfoxide (DMSO), and diluted to an arbitrary concentration (A). A was 100-fold diluted with a buffer (0.1 M Tris (pH 8.0), 0.15 M NaCl, 10 mM CaCl2, 0.05% Brij35) (B). The rh-trypsin was diluted with a buffer to 0.088 μg/mL, and for the m-trypsin, the purified fraction liquid was 50-fold diluted with the buffer (C). […] A BZiPAR solution (Rhodamine Reference Substrate) which is substrate for the trypsin enzyme was diluted with the buffer to […] (D). 5 μL of B, 5 μL of C, and 10 μL of D were added to a 384-well plate, and incubated at room temperature for 30 minutes. Fluorescent signals were detected at a maximum excitement (Ex)/fluorescent wavelength (Em)=497 nm/520 nm using a Tecan Safire Fluorometer. […] Based on the obtained inhibitory rates, the trypsin inhibitory activities (IC50 values, nM) were calculated from the non-linear regression.

[2] = tested on: T2, mouse trypsin (m-trypsin); test: Trypsin inhibitory activity, mouse trypsin purified from small intestine contents, BZiPAR fluorescent substrate; type: biochemical; conditions: 30 min at room temperature
T2 construct: mouse trypsin (m-trypsin)
Text: 1. Confirmation of Trypsin Inhibitory Activity in Humans and Mice
In the experiment, human recombinant trypsin (rh-trypsin; manufactured by Wako Pure Chemical Industries, Ltd.), cat. #206-17171) and mouse trypsin (m-trypsin; purified from the mouse small intestine contents by the present inventors) were used. The method for purifying m-trypsin from the contents of the mouse small intestine is shown below.
The small intestine contents and the gastrointestinal tract obtained from 10 mice were homogenized in phosphate buffer saline (PBS) using Polytron, and subjected to centrifugation several times at 15,000×g for 10 minutes. The supernatant was mixed at 4° C. for 16 hours with a Benzamidine Sepharose 4 Fast Flow Resin (GE Healthcare: #17-5123-10). After washing the resin with PBS, m-trypsin was eluted with a glycine buffer (pH 3.0) to carry out purification. It was confirmed by Western blot analysis that the obtained purified fraction was recognized as an Anti-mouse Trypsin Antibody (Santa Cruz Biotechnology, Inc.: sc-67388). The method for measuring the trypsin inhibiting activity is shown below.
as §1, with “The” for “1. Confirmation of Trypsin Inhibitory Activity in Humans and Mice In the experiment, human recombinant trypsin (rh-trypsin; manufactured by Wako Pure Chemical Industries, Ltd.), cat. #206-17171) and mouse trypsin (m-trypsin; purified from the mouse small intestine contents by the present inventors) were used. The method for purifying m-trypsin from the contents of the mouse small intestine is shown below. The”

Wistar rats = test: Rat uninephrectomy doxorubicin (DXR)-induced nephropathy model (renal function reduced model); type: in vivo; conditions: 10 mg/kg oral twice daily, week 3, vs control group
Method: 3. Test of Rat Uninephrectomy Doxorubicin (DXR)-Induced Nephropathy Model (Renal Function Reduced Model) Uninephrectomy was performed in the left kidney of 10-week old male Wistar rats, and one week later, DXR (5 mg/kg) was administered to the rats via the caudal vein to induce a nephropathy model. The experiment was carried out in ten rats per group. During the period of administering the compound, the rats were fed with diet only in daytime, while fasted in nighttime. A test compound (10 mg/kg) was suspended in a 0.5% methylcellulose (MC) solution from the day after the preparation of the model, and was forcibly orally administered twice (morning and night) daily. To each of a sham (normal) group and a control group, 0.5% MC was forcibly orally administered. At 1, 2, and 3 weeks after the start of administration of the test compound, 24-hour urine collection was each performed to measure the amount of the protein excretion in urine. Blood collection was performed after the end of the urine collection at week 3, and the concentration of creatinine in plasma was measured.

Compound | response vs control in vivo at 5 mg/kg (ICR mice) | IC50 [1] | IC50 [2] | inhibitory rate of the amount of protein excretion in urine (Wistar rats) | inhibitory rate of the creatinine concentration in plasma (Wistar rats)
Cl.N=C(N)Nc1ccc(C(=O)Oc2ccc3c(c2)CCCC3CC(=O)N(CC(=O)O)Cc2cccc(C(=O)O)c2)cc1 (centres unmarked) [Example 2, 3-{[({6-[(4-carbamimidamnidobenzoyl)oxy]-1,2,3,4-tetrahydronaphthalen-1-yl}acetyl)(carboxymethyl)amino]methyl}benzoic acid monohydrochloride] | 255% | 400 pM | 510 pM | about 42% | about 42%
C[C@H](C(=O)O)N(Cc1csc(C(=O)O)c1)C(=O)CC1CCCc2cc(OC(=O)c3ccc(NC(=N)N)cc3)ccc21 (single isomer, unassigned) [Example 7, 4-({({(1R)-6-[(4-carbamimidamidobenzoyl)oxy]-1,2,3,4-tetrahydronaphthalen-1-yl}acetyl) [(1R)-1-carboxyethyl]amino}methyl)thiophene-2-carboxylic acid or an epimer at position 1 of the 1,2,3,4-tetrahydronaphthalene] | 183% | 300 pM | 260 pM |  | 
N=C(N)Nc1ccc(C(=O)Oc2ccc3c(C(=O)N(CC(=O)O)[C@@H](Cc4ccccc4)C(=O)O)cccc3c2)cc1 [Example 40] | 189% | 290 pM | 270 pM |  | 
